Measurements published in ChEMBL document CHEMBL5233279, “d-Mannose binding, aggregation property, and antifungal activity of amide derivatives of pradimicin A” (Bioorg Med Chem, 2021).
≈ marks a conversion by molar mass, not a printed value.

How the values were obtained:
Diutina rugosa = experiment: Antifungal activity against Candida rugosa AJ14513 assessed as inhibition of fungal growth incubated for 48 hrs; type: functional
[1] = Binding affinity to methyl alpha-D-mannopyranoside (unknown origin) in MPOS buffer at pH 7.0 assessed as primary dissociation constant (Kd1) by ITC experiment
[2] = Binding affinity to methyl alpha-D-mannopyranoside (unknown origin) in MPOS buffer at pH 7.0 assessed as secondary dissociation constant (Kd2) by ITC experiment
[3] = Aggregation property of the compound in MPOS buffer at pH 7.0 assessed as compound remaining in supernatant incubated for 15 mins at 37 degreeC followed by 30 mins incubation at room temperature by HPLC based sedimentation assay relative to control; type: physicochemical; set-up: concentration or dose not given beside the values; details: pH 7, 0.75 h, time 45 min
[4] = Aggregation property of the compound in MPOS buffer at pH 7.0 assessed as compound remaining in supernatant at 1 mM incubated for 15 mins at 37 degreeC followed by 30 mins incubation at room temperature by HPLC based sedimentation assay relative to control; type: physicochemical; details: pH 7, 0.75 h, 1000 µM, time 45 min
[5] = Aggregation property of the compound in MPOS buffer at pH 7.0 incubated for 15 mins at 37 degreeC followed by 30 mins incubation at room temperature by HPLC based sedimentation assay; type: physicochemical; details: pH 7, 0.75 h, time 45 min
[6] = Binding affinity to D-mannose (unknown origin) in MPOS buffer at pH 7.0 assessed as primary dissociation constant (Kd1) by ITC experiment
[7] = Binding affinity to D-mannose (unknown origin) in MPOS buffer at pH 7.0 assessed as secondary dissociation constant (Kd2) by ITC experiment

Structure (SMILES) | MIC (Diutina rugosa) [µg/mL] | Kd [1] [µM] | Kd [2] [µM] | Activity [3] [%] | Activity [4] [%] | Activity [5] | Kd [6] [µM] | Kd [7] [µM]
CN[C@@H]1[C@H](O[C@@H]2OC[C@@H](O)[C@H](O)[C@H]2O)[C@@H](O)[C@H](O[C@H]2c3cc(C)c(C(=O)N[C@H](C)C(N)=O)c(O)c3-c3c(cc4c(c3O)C(=O)c3cc(OC)cc(O)c3C4=O)[C@@H]2O)O[C@@H]1C | 16 (≈ 19.1 µM) | 220 | 5500 | – | > 60 | – | – | –
CN[C@@H]1[C@H](O[C@@H]2OC[C@@H](O)[C@H](O)[C@H]2O)[C@@H](O)[C@H](O[C@H]2c3cc(C)c(C(=O)N[C@H](C)C(=O)N(C)O)c(O)c3-c3c(cc4c(c3O)C(=O)c3cc(OC)cc(O)c3C4=O)[C@@H]2O)O[C@@H]1C | 16 (≈ 18.4 µM) | 180 | 3500 | 65 | – | – | – | –
CN[C@@H]1[C@H](O[C@@H]2OC[C@@H](O)[C@H](O)[C@H]2O)[C@@H](O)[C@H](O[C@H]2c3cc(C)c(C(=O)N[C@H](C)C(=O)NOC)c(O)c3-c3c(cc4c(c3O)C(=O)c3cc(OC)cc(O)c3C4=O)[C@@H]2O)O[C@@H]1C | 16 (≈ 18.4 µM) | 360 | 5300 | 65 | – | – | – | –
CN[C@@H]1[C@H](O[C@@H]2OC[C@@H](O)[C@H](O)[C@H]2O)[C@@H](O)[C@H](O[C@H]2c3cc(C)c(C(=O)N[C@H](C)C(=O)NCCO)c(O)c3-c3c(cc4c(c3O)C(=O)c3cc(OC)cc(O)c3C4=O)[C@@H]2O)O[C@@H]1C | 16 (≈ 18.1 µM) | – | – | – | – | – | – | –

Now from value to compound:

MIC (Diutina rugosa) [µg/mL] | Kd [1] [µM] | Kd [2] [µM] | Activity [3] [%] | Activity [4] [%] | Activity [5] | Kd [6] [µM] | Kd [7] [µM] | Structure (SMILES)
16 (≈ 18.1 µM) | 340 | 5200 | 65 | – | – | – | – | CN[C@@H]1[C@H](O[C@@H]2OC[C@@H](O)[C@H](O)[C@H]2O)[C@@H](O)[C@H](O[C@H]2c3cc(C)c(C(=O)N[C@H](C)C(=O)N(C)OC)c(O)c3-c3c(cc4c(c3O)C(=O)c3cc(OC)cc(O)c3C4=O)[C@@H]2O)O[C@@H]1C
16 (≈ 18.7 µM) | 860 | 6500 | – | > 60 | – | – | – | CNC(=O)[C@@H](C)NC(=O)c1c(C)cc2c(c1O)-c1c(cc3c(c1O)C(=O)c1cc(OC)cc(O)c1C3=O)[C@H](O)[C@H]2O[C@@H]1O[C@H](C)[C@H](NC)[C@H](O[C@@H]2OC[C@@H](O)[C@H](O)[C@H]2O)[C@H]1O
16 (≈ 18.7 µM) | 300 | 9800 | 65 | – | – | – | – | CN[C@@H]1[C@H](O[C@@H]2OC[C@@H](O)[C@H](O)[C@H]2O)[C@@H](O)[C@H](O[C@H]2c3cc(C)c(C(=O)N[C@H](C)C(=O)NN)c(O)c3-c3c(cc4c(c3O)C(=O)c3cc(OC)cc(O)c3C4=O)[C@@H]2O)O[C@@H]1C
4 (≈ 4.76 µM) | 96 | 3800 | – | – | Active | – | – | CN[C@@H]1[C@H](O[C@@H]2OC[C@@H](O)[C@H](O)[C@H]2O)[C@@H](O)[C@H](O[C@H]2c3cc(C)c(C(=O)N[C@H](C)C(=O)O)c(O)c3-c3c(cc4c(c3O)C(=O)c3cc(OC)cc(O)c3C4=O)[C@@H]2O)O[C@@H]1C [PRADIMICIN A]
8 (≈ 9.35 µM) | 75 | 4300 | 65 | – | – | 100 | 5500 | CN[C@@H]1[C@H](O[C@@H]2OC[C@@H](O)[C@H](O)[C@H]2O)[C@@H](O)[C@H](O[C@H]2c3cc(C)c(C(=O)N[C@H](C)C(=O)NO)c(O)c3-c3c(cc4c(c3O)C(=O)c3cc(OC)cc(O)c3C4=O)[C@@H]2O)O[C@@H]1C
